{"source": "patent US9974743B2", "about": "“Device and method for delivery of a medicament” (Philip Morris Products S.A., priority 2009, dated 2018)", "origin": "cited, not measured here", "conditions": "25° C.", "data": [{"smiles": "CN1CCCC1c1cccnc1", "note": "(stereo not shown) [Nicotine Control, Nicotine]", "values": [{"measurement": "vapor pressure", "value": 0.04, "unit": "mm Hg"}]}]}
